Data set [1] concerns rabbit cornea (keratocytes, endothelium), retina. Briefly: Histology and endothelial staining after in vivo treatment. Particulars: two days after treatment. On the procedure:
Forty eight hours or 1 week after treatment with Bchl-S, Bchl-D, RF or RF-D, rabbits were euthanized, and the eyes were immediately enucleated and fixated in Davidson's fixative (48 hour post treatment) or in 4% formaldehyde (1 week post treatment). […] sections were prepared from either the whole eye or corneas and stained with hematoxylin-eosin (H&E). The pathology of the corneal and retinal sections was examined. The sections were photographed with a digital video camera (Nikon DS-Ril, Japan), mounted on a light microscope (E-800 Leica, Germany). Keratocyte and endothelial cell densities were counted in 2 areas of 2 central histological sections and calculated, using Image-Pro software (MediaCybernetics, MD, USA). Rabbits underwent analysis of corneal endothelial damage 1 day post treatment, using alizarine red S and trypan blue staining as described in Spence and […], 1976. The treatment included either a 20-minute pretreatment with Bchl-S or Bchl-D solutions, followed by 30-minute irradiation at 755 nm (2 rabbits), or only a 30-minute irradiation at 760 nm (2 rabbits). Contralateral non-treated eyes served as controls. One rabbit underwent treatment with WST11 in saline (WST11-S; 20-minute incubation, 30-minute irradiation at 755 nm). Six rabbits underwent treatment with WS[…] (n=4, 20-minute incubation, 30-minute irradiation at 755 nm), or with RF-D (n=2, 30-minute incubation, 30-minute irradiation at 370 nm) as described above (In-vivo studies section). Contralateral eyes were used as control.

The subject of another data set is rabbit cornea. Kind of data set: Stress-strain measurements of in-vivo treated corneas. Here is the method: Twelve to twenty five weeks old rabbits (2.5-3 Kg weight) were used. They were anesthetized by intramuscular (i.m.) injection of 35 mg/kg ketamine (Rhone Merieux, Lyon, France) and 5 mg/kg xylazine (Vitamed, Binyamina, Israel). Usually, 16 rabbits were assigned for bacteriochlorophyll treatment. After de-epithelialization, one eye of each rabbit was treated topically with a test compound in saline for 10, 20 and 30 minutes using an eye cap (12 mm in diameter), followed by NIR illumination for 10, 20 or 30 minutes (755 nm, 10 mW/cm^2). The other eye served as untreated control. To prevent exposure of the limbal stem cells, the illuminated area was restricted by an aluminum foil mask with an 8 mm diameter central opening. To determine the role of dextran, 12 rabbits were divided into 4 treatment groups of 3 rabbits each: group 1, the Bchl-S group, was treated with a saline solution of a bacteriochlorophyll derivative; group 2, the Bchl-D group, treated with a bacteriochlorophyll-dextran solution. Both groups were incubated with the test compound for 20-min, followed by NIR illumination (755 nm, 10 mW/cm^2) for 30 minutes. Group 3, the RF group, was treated with riboflavin without dextran, and group 4, the RF-D group was treated with RF-dextran solution (RF-D). Both groups were incubated with RF or RF-D solutions for 30-minute, followed by UVA illumination (370 nm, 3 mW/cm^2) for 30 minutes. An ophthalmic ointment containing dexamethasone 0.1%, neomycin and polymixin B (Maxitrol®, Alcon, Belgium) was applied on the treated eyes once daily for two weeks. Four weeks after the treatment the rabbits were sacrificed, and the corneoscleral rings were removed and placed on paraffin hemisphere buttons of matching shape to assure accurate sectioning without stretching the tissue. Corneal strips, 4±0.2 mm in width, were cut from the epithelial side, as described above in the ex-vivo section. The corneal strips were transferred to the biomechanical tester without delay.
(§1) The corneal and scleral strips were clamped horizontally, at a distance of 6 mm, between the jaws of a microcomputer-controlled biomaterial tester (Minimat, Germany) with a 200 Newton force cell (FIG. 1). Controlled tightening of screws was performed with a calibrated screwdriver at a preset torque of 9 cN.m (Torqueleader, England). The strain was increased linearly at a rate of 1.0 mm/min and was measured up to tissue rupture. Young's modulus was calculated by the testing machine. Ultimate stress and Young's modulus were expressed in Mega Pascal (MPa) units.
Corneas of 16 live rabbits were pretreated for 10 (n=4), 20 (n=6) and 30 (n=6) minutes with WST11-S (2.5 mg/ml). NIR illumination (755 nm, 10 mW/cm^2) was then delivered for 30 minutes. […] Results are shown in FIGS. 9A-9B, and in Tables 1 and 2.
To determine the role of dextran, the photochemical treatment with a formulation of WST11 2.5 mg/ml containing 20% dextran T-500 (WST11-D) was examined. Six rabbits were examined: 3 rabbits were pretreated for 20 min with WST11-S solution and 3 with WST11-D solution, followed by NIR illumination for 30 minutes. Additional 4 rabbits were treated with RF (n=2) or RF-D (n=2) for 30 minutes, followed by 30-min UVA irradiation (370 nm, 3 mW/cm^2).

The next data set has as its system rabbit sclera. Kind of data set: Biomechanical testing of rabbit sclera treated ex vivo, external NIR illumination. The following applies: 2.5 mg/ml 30 min, external NIR 30 min. Here is the method:
The opposite side of the sclera served as control. Scleral strips, 4 mm in width, were cut at the equatorial treated area and the opposite sclera, and stress-strain measurements were performed using a biomaterial tester.
as §1
Stress-strain tests of sclera of enucleated rabbits' eyes were performed following treatment with WST11 (2.5 mg/ml) as described in Materials and Methods. After photosensitizer impregnation, the sclera was illuminated by applying the laser beam directly onto the treated area (external illumination), using a flat optical fiber that run along a curved plastic or metal glide as shown in FIG. 17A. Strips of the sclera were cut and tested.

[2] abbreviates: 20 min pretreatment, saline or 20% dextran T-500 formulation, 30 min NIR.
[3] abbreviates: 30 days, 30 min incubation, 30 min NIR, vs untreated fellow eyes, dipotassium salt.
The mark [4] stands for this setting: 30 days, 30 min incubation, 30 min NIR, vs untreated fellow eyes, listed as WST11-S, dipotassium salt.
[5] abbreviates: one month, 10 min incubation, 30 min NIR.
Where [6] appears, read: one month, 20 min incubation, 30 min NIR.

The values that follow come from patent US11058772B2, “(Bacterio)chlorophyll photosensitizers for treatment of eye diseases and disorders” (Yeda Research and Development Co. Ltd., priority 2011, dated 2021).

Turning to `CCC1C2=Cc3c(C)c(C(=O)NCCS(=O)(=O)[O-])c4[n]3[Pd][n]3c(c(C)c(C(C)=O)c3=CC(=N2)C1C)=CC1=NC(=C4CC(=O)OC)C(CCC(=O)[O-])C1C.[K+].[K+]` (stereo not drawn) [WST11, Palladium 3^1-oxo-15-methoxycarbonylmethyl-rhodobacteriochlorin 13^1-(2-sulfoethyl)amide dipotassium salt], in data set [1], the “corneal edema (histology)” value was “marked edema”. In addition, in data set [1], the “keratocytes in stroma (histology)” value is “reduced number of keratocytes throughout the stroma”. The “endothelial cell layer / damage to the endothelium” value in data set [1] (H&E and vital staining, listed as WST11-S, dipotassium salt) was “appeared intact”. Besides, the “cornea swelling (thickness)” value in data set [1] (histology) stood at 890 μm. Further, the “endothelial counts, treatment vs control” value in data set [1] (P=0.47) is reported as “no statistical difference”. Further, in the data set with rabbit cornea (setting [2]), the “increase in Young's modulus compared with untreated corneas of fellow eyes” value is on record as “approximately two-fold increase”. Also, the “increase in mean ultimate stress compared with untreated corneas of fellow eyes” value in the data set on rabbit cornea (setting [2]) was “approximately two-fold increase”. Further, the “Mean Young's Modulus Intensity” value is given as 32 ± 3.6 MPa in the data set on rabbit cornea (30 days, 30 min incubation 2.5 mg/ml, 30 min NIR); 13.9 ± 3.9 MPa in the data set with rabbit cornea (setting [5]); 22.7 ± 3.82 MPa with rabbit cornea (setting [6]). Further, the “Mean ultimate stress Intensity” value amounted to 6.91 ± 0.53 MPa in the data set with rabbit cornea (30 days, 30 min incubation 2.5 mg/ml, 30 min NIR 755 nm 10 mW/cm^2); 4.51 ± 1.85 MPa in the data set with rabbit cornea (setting [5]); 6.66 ± 0.67 MPa in the data set on rabbit cornea (setting [6]). The “Mean Young's Modulus Increase %” value in the data set with rabbit cornea (setting [3]) came out at 174%; in the data set with rabbit cornea (setting [4]) it was 173%; in the data set with rabbit cornea (one month, 10 min incubation, 30 min NIR, dipotassium salt), 9%; in the data set with rabbit cornea (one month, 10 min incubation, 30 min NIR, listed as WST11-S, dipotassium salt), 10%; in the data set on rabbit cornea (setting [6]), 79%. For the same molecule, the “Mean ultimate stress Increase %” value in the data set on rabbit cornea (setting [3]) is reported as 111%; in the data set with rabbit cornea (setting [4]), 126%; in the data set with rabbit cornea (setting [5]) it was 45%; with rabbit cornea (setting [6]), 113%. Further, the mean maximal stress with rabbit sclera (control 2.77±0.99) turned out to be 7.6±0.99 MPa. Also, the “mean Young's modulus” value with rabbit sclera (control 15.2±7.5) amounted to 45.6±3.9 MPa.
